Measurements taken from patent publication US20170217914A1, “Novel Triarylethylene Compounds and Methods Using Same” (The Penn State Research Foundation, priority 2014, published 2017).
Where two headings read alike, the source gives them in different places.

What was measured:
MMP-9 = experiment: Western blot, MMP-9 expression in breast cancer cells; format: cell-based, human; details: MDA-MB-231 and MCF-7 cells, 24 h
Protocol: (§1) To determine the effect of novel triarylethylene derivatives on proteins involved in metastasis, and adhesion, whole-cell extracts were prepared by subjecting cells to lysis in RIPA buffer supplemented with protease and phosphatase inhibitor cocktails using previously described methods (Pandey et al., 2014, Exp. Hematol. 42:883-896). Lysates were spun at 15,000 rpm for 10 minutes to remove insoluble material. Supernatant were collected and kept at −80° C. Lysates were resolved by SDS-PAGE. After electrophoresis, the proteins were electro-transferred to PVDF membranes, blotted with the relevant antibodies, and detected by enhanced chemo-luminescence reagent.

c-Myc = experiment: Western blot, c-Myc expression in breast cancer cells; format: cell-based, human; details: MDA-MB-231 and MCF-7 cells, 24 h
Protocol: as §1

caveolin = experiment: Western blot, caveolin expression in breast cancer cells; format: cell-based, human; details: MDA-MB-231 and MCF-7 cells, 24 h
Protocol: as §1

MDA-MB-231 cells [1] = experiment: In vitro Matrigel invasion assay; format: cell-based, human; details: dose dependent
Protocol: Human breast cancer MDA-MB-231 cells were serum starved for 24 h in serum-free medium (DMEM without FBS). After starving 50,000 cells were transferred onto Matrigel pre-coated invasion inserts (upper chamber, BD Biocoat). Lower chambers of plate were filled with complete medium (DMEM and 10% FBS) and cells were allowed to migrate under chemotaxis. […] After incubation cells that had invaded to the opposite side of the Transwell membrane were washed with PBS and fixed in chilled 70% ethanol for 15 min and air dried. Cells were stained with 0.5% crystal violet for 10 min. Cells were washed, dried, and images were captured at 40× magnification.

[2] = test system: MCF-7 (ER-positive) human breast cancer cell line; experiment: MTT cell viability assay, MCF-7 cells; details: for anticancer activity in initial screening: 0.5-25 μM, 48 h (FIG. 3); for times more cytotoxic than Tamoxifen / times more effective than Ospemifene: 96 h time point; for IC50: Homo sapiens, read-out: MCF-7 (ER positive) IC50
Protocol: (§3) An MTT solution was added to each well and incubated for 3 h at 37° C. After 3 h, DMSO was added and the optical density was measured at 570 nm using a 96-well multiscanner (Dynex Technologies, MRX Revelation; Chantilly, Va., USA). Backgrounds were subtracted at 630 nm. IC50 values were calculated by non-linear regression analysis using Prism software.
(§4) The effects of novel triarylethylene derivatives on the cell viability were determined by the MTT uptake method using previously described methods (Kaur et al., 2014, Eur. J. Med. Chem. 86:211-218). Briefly, 3000 cells were incubated with various concentrations of compounds in triplicate in a 96-well plate for 72 h at 37° C. An MTT solution was added to each well and incubated for 3 h at 37° C. After 3 h, DMSO was added and the optical density was measured at 570 nm using a 96-well multiscanner (Dynex Technologies, MRX Revelation; Chantilly, Va., USA). Backgrounds were subtracted at 630 nm. IC50 values were calculated by non-linear regression analysis using Prism software.

[3] = test system: MDA-MB-231 (ER-negative) human breast cancer cell line; experiment: MTT cell viability assay, MDA-MB-231 cells; details: for anticancer activity in initial screening: 0.5-25 μM, 48 h (FIG. 3); for times more cytotoxic than Tamoxifen / times more effective than Ospemifene: 96 h time point; for IC50: Homo sapiens, read-out: MDA-MB-231 (ER− negative) IC50
Protocol: as §3, §4

MCF-7 cells = experiment: Live/Dead assay by flow cytometry, MCF-7 cells; format: cell-based, human; details: 24 h
Description: (§2) To measure cell death, the Live/Dead assay (Life technologies, USA) was used, which determines intracellular esterase activity and plasma membrane integrity (Pandey et al., 2013, PloS One 8:e78570). Nonfluorescent polyanionic dye calcein AM is retained by live cells and by enzymatic conversion (esterase) it becomes fluorescent, produces intense green fluorescence in live cells. Ethidium homodimer enters cells with damaged membranes and binds to nucleic acids, thereby producing a bright red fluorescence in dead cells. […] Cells were stained with the Live and Dead reagent (5 μM ethidium homodimer and 5 μM calcein-AM) and analyzed by flow cytometry according to the manufacture's protocols.

[4] = test system: normal mouse embryonic fibroblast (MEF) cells; experiment: MTT cell viability assay, normal MEF cells; details: 48 h
Protocol: as §3

MDA-MB-231 cells [5] = experiment: Live/Dead assay by flow cytometry, MDA-MB-231 cells; format: cell-based, human; details: 24 h, 10 μM
Description: as §2

[6] = MTT, 72 h, versus Ospemifene and Tamoxifen

IC50 ([2]; MCF7, 48 h) [µM]	IC50 ([2]; MCF7, 96 h) [µM]	IC50 ([3]; MDA-MB-231, 48 h) [µM]	IC50 ([3]; MDA-MB-231, 96 h) [µM]	Compound	expression of MMP-9 (MMP-9)	expression of c-Myc (c-Myc)	expression of caveolin (caveolin)	effect on invasion of ER-negative cells (MDA-MB-231 cells [1])	cytotoxic activity [2, 6]	cytotoxic activity [3, 6]	dead cells (MCF-7 cells; increasing amount of compound)	anticancer activity in initial screening [2]	times more cytotoxic than Tamoxifen [2]	times more effective than Ospemifene [2]	anticancer activity in initial screening [3]	times more cytotoxic than Tamoxifen [3]	times more effective than Ospemifene [3]	toxicity to normal MEF cells [4]	cells killed (MCF-7 cells; 10 μM) [%]	cells killed (MDA-MB-231 cells [5]) [%]
–	–	–	–	(Z)-[4-azido-1-{4-(2-azidoethoxy) phenyl}but-1-ene-1,2-diyl]dibenzene [Compound 5]	inhibited the expression	inhibited the expression	inhibited the expression	suppressed the invasion	much more effective than the standards	much more effective than the standards	–	–	–	–	–	–	–	–	–	–
15.9	12.4	25	14.5	NCC/C(=C(\c1ccccc1)c1ccc(OCCO)cc1)c1ccccc1 [Compound 6, (Z)-2-{4-(4-amino-1,2-diphenylbut-1-enyl)phenoxy}ethanol]	–	–	–	–	–	–	50-70%	more potent than Ospemifene	at least five	about five	more potent than Ospemifene	at least five	eight	non-toxic	–	–
23.6	11.2	17.1	13.4	NCCOc1ccc(/C(=C(/CCN)c2ccccc2)c2ccccc2)cc1 [Compound 7, (Z)-4-{4-(2-aminoethoxy)phenyl}-3,4-diphenylbut-3-en-1-amine]	–	–	–	–	–	–	–	more potent than Ospemifene	at least five	about five	more potent than Ospemifene	at least five	eight	non-toxic	70	70
